Source: publication PMC9687798, “Atypical Substrates of the Organic Cation Transporter 1” (Biomolecules, 2022)
Blank lines part the entries; values can stand above or below the compound they belong to.

Legend:
OCT1 = settings: cited from earlier work
[1] = Concentration-dependent uptake into empty vector-transfected HEK293 cells; format: cell-based, human; settings: human, empty vector (pcDNA5/FRT)-transfected HEK293 cells, pH 7.4; empty vector-transfected HEK cells; read-out: intrinsic clearance
Experimental: (§1) The transport experiments were performed using HEK293 cells that overexpress human OCT1*1 (wild-type), mutant human OCT1 D474N, variant human OCT1*2 (M420del) and OCT1*3 (R61C), wild-type human OCT2, and OCT3 after stable transfection. The wild-type cell lines of OCT1 and OCT2, as well as the variant cell lines OCT1*2 and *3, were generated using the Flp-In system (Thermo Fisher Scientific, Darmstadt, Germany) as described in previous publications. The cell line overexpressing OCT3 was a kind gift from Dr. Koepsell and Dr. Gorbulev (University of Würzburg, Germany). Cells transfected with the empty pcDNA5/FRT vector were used for the transport experiments as a control cell line. All cells were cultured approximately up to passage 30.
(§2) Forty-eight hours before the transport experiments, 600,000 cells were plated on 12-well plates pre-coated with poly-D-lysine and incubated at 37 °C with 5% CO2. The prepared 12-well plate with cells was positioned on a heating plate pre-warmed to 37 °C. After removing the medium, the cells were washed with 37 °C HBSS+ (10 mM HEPES in Hank’s balanced salt solution, pH 7.4). Then, one pre-defined concentration of a substrate was added to each well. The incubation period was stopped by adding 2 mL of 4 °C HBSS+ and removing the cells from the heating plate. The cells were washed twice with 4 °C HBSS+. For cell lysis, the cells were incubated for 15 min with 500 µL of 80% acetonitrile (LGC Standards, Wesel, Germany), which contained a respective internal standard (Table 1).
(§3) For time-dependent transport, the cells were incubated with 1 µM of the substance for 15 to 240 s to determine the linear uptake range ≥ 15 s. For concentration-dependent transport, the cells were incubated with defined substrate concentrations (0.1, 1, 10, 30, 100, 300, 600, 1000 µM) for the respective pre-defined incubation times. […]; 100 µM) and pre-defined incubation times. The uptake by a transporter was normalised to the uptake by empty vector-transfected cells. […] The results of transport experiments were normalized to the total protein concentration per well. Total protein quantification was performed using a bicinchoninic acid assay with bovine serum albumin as standard.
(§4) The ratios of cellular uptake were calculated by dividing the total uptake of transporter-overexpressing cells by the total uptake into empty vector transfected cells. The concentration-dependent cellular net uptake was used for analysis of transport kinetics by subtracting for each substrate concentration the uptake of empty vector-transfected cells from the uptake of transporter-overexpressing cells. The transport kinetic parameters Vmax and KM were determined with non-linear regression by using the Michaelis–Menten equation for net uptake data and by using the Michaelis–Menten equation extended with a linear term for total uptake data (GraphPad Prism 5.01, GraphPad software, LA Jolla, CA, USA). The intrinsic clearance Clint was expressed with the ratio of Vmax and KM.

[2] = test system: empty vector-transfected HEK cells; test: as above; format: cell-based, human; settings: uptake into empty vector-transfected cells
Experimental: as §1, §2, §3, §4

[3] = no reference given; cited from earlier work
OCT1 (wild-type, OCT1*1) = OCT1 (wild-type, OCT1*1) (Homo sapiens, UniProt O15245); test: Concentration-dependent uptake (transport kinetics) in HEK293 cells overexpressing OCT1 wild-type; settings: human, HEK293 cells stably overexpressing human OCT1*1 (wild-type), pH 7.4, KM (±SEM), net uptake (OCT1 minus empty vector), HEK293, 0.1-1000 µM substrate, Michaelis–Menten

SMILES: N=C(N)c1ccc(OCCCCCOc2ccc(C(=N)N)cc2)cc1 [Pentamidine, pentamidine]
Km (OCT1): 36.4 µM
intrinsic clearance (OCT1): 4.3 µL/mg protein/min

microsomal CLint [1]: 54.4 µL/min/mg
SMILES: N[C@@H](Cc1ccc(O)c(O)c1)C(=O)O [Levodopa, levodopa]
Km [2]: 380 µM
Vmax [2]: 20,681 pmol/mg protein/min

SMILES: COc1cc(Cc2cnc(N)nc2N)cc(OC)c1OC [Trimethoprim, trimethoprim]
fraction eliminated via the kidneys [3]: about 75%

Km (OCT1 (wild-type, OCT1*1)): 719 µM
SMILES: CCCCC[C@H](O)/C=C/[C@@H]1[C@@H](C/C=C\CCCC(=O)O)[C@@H](O)C[C@H]1O [Prostaglandin F2α, prostaglandin F2α]
